{"source": "patent US20180332878A1", "about": "“BITTER TASTE INHIBITOR” (NAGAOKA CO., LTD., priority 2017, published 2018)", "assay_type_in_all_cases": "in vivo, human", "key": {"[1]": {"assay": "Sensory evaluation, summary of Table 3", "settings": "added to an extract of a crude drug having a bitter taste"}, "[2]": {"assay": "Sensory evaluation, summary of Table 2", "settings": "added to an amino acid having a bitter taste"}, "[3]": {"assay": "Sensory evaluation, summary of Table 1", "settings": "added to a food or beverage having a bitter taste; without deteriorating the influence of the food or beverage itself", "excerpt": "The beer (without addition of isobutyl angelate) was tasted by seven panelists (one twenty-something male, one thirty-something male, one forty-something male, one fifty-something male, one sixty-something male, and one twenty-something female and one thirty-something female). Subsequently, the seven panelists rinsed their mouths sufficiently, and then the beer having isobutyl angelate added thereto (with addition of isobutyl angelate) was tasted by the seven panelists. The panelists compared the isobutyl-angelate-free beer with the isobutyl-angelate-containing beer, and then determined whether or not the bitter taste in the isobutyl-angelate-containing beer was improved compared with the isobutyl-angelate-free beer in accordance with the following criteria. When the sum total of the scores determined by the seven panelists was 10 points or greater, it was determined that the bitter taste was improved.\n1 point: although a bitter taste was sensed, the bitter taste was improved compared with the isobutyl-angelate-free beer; and\n0 point: the bitter taste was not improved."}}, "data": [{"smiles": "C/C=C(/C)C(=O)OCC(C)C", "note": "[isobutyl angelate, Isobutyl angelate]", "values": [{"measurement": "Effect on bitter taste (summary of Table 3)", "setting": "[1]", "value": "a bitter taste derived from the crude drug is reduced"}, {"measurement": "Effect on bitter taste (summary of Table 2)", "setting": "[2]", "value": "the bitter taste derived from the amino acid is reduced"}, {"measurement": "Effect on bitter taste (summary of Table 1)", "setting": "[3]", "value": "the bitter taste is reduced"}]}]}
